Laboratory results as given in US7652153B2, “Caspase inhibitors and uses thereof” (Vertex Pharmaceuticals Incorporated, priority 2004, dated 2010).

Columns and labels:
caspase-1 = molecular target: T1, caspase-1 (Homo sapiens, UniProt P29466); assay: Caspase-1 enzyme inhibition (Ki, method of Margolin et al.); type: biochemical; conditions: Suc-YVAD-pNA substrate 80 μM, 37° C., pH 7.5; read-out: Ki C1
T1 sequence (P29466 120-297 limits assumed): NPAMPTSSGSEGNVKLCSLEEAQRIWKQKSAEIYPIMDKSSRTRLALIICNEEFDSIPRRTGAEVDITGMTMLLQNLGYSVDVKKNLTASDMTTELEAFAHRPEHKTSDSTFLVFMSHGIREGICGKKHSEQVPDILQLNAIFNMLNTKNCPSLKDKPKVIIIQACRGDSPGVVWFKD
T1 sequence (P29466 317-404 limits assumed): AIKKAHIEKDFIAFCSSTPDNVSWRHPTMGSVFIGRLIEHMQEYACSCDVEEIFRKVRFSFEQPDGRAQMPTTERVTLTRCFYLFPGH
Protocol: (§1) Compounds of this invention may be tested using the methods described below.
(§2) In Vitro Assays Enzyme Inhibition
(§3) Ki values for test compounds with caspase-1 and caspase-8 were obtained by the method of Margolin et al. (J. Biol. Chem., 272 pp. 7223-7228 (1997)). Other caspases may be assayed similarly (see, e.g., WO 99/47545). Assays were performed in 10 mM Tris (Sigma Corp, St Louis Mo.) pH 7.5, 1 mM Dithiothreitol (DTT, Research Organic INC, Cleveland, Ohio) and 0.1% CHAPS (Pierce, Rockford Ill.) at 37° C. For caspase-3, a solution of 8% glycerol was added to the assay buffer to improve enzyme stability. A 65 μL aliquot of the assay buffer and 5 μL aliquot of the appropriate dilutions of inhibitor in DMSO where pipetted into a 96 well plate, treated with 10 μL of caspase, then diluted in assay buffer (0.5-40 nM active protein by active site titration). A control containing DMSO but no compound was included for each determination. The plates were then incubated for 15 minutes at 37° C., before addition of the appropriate substrate (20 μL, final concentration 1-4×KM, final assay volume 100 μL) to initiate the reaction. Reaction rates were measured at 37° C. either by following the time dependant increase in absorbance at 405 nm (for the pNA substrates) or in fluorescence (Ex 390, Em 460) (for the AMC substrates). The rates obtained were plotted against inhibitor concentration and the data fit to the Morrison tight-binding equation for competitive inhibitors (Morrison, J. F., Biochem. Biophys. Acta, 185 pp. 269-286 (1969)). The substrates used for the individual assays were as follows:
Caspase-1 Suc-YVAD-pNA (Bachem, King of Prussia, Pa.) (final concentration in the assay 80 μM);

caspase-8 = caspase-8 (Homo sapiens, UniProt Q14790); assay: Caspase-8 enzyme inhibition (Ki, method of Margolin et al.); type: biochemical; conditions: Ac-DEVD-pNA substrate 80 μM, 37° C., pH 7.5; read-out: Ki C8
Protocol: as §1, §2, §3
Caspase-8 Ac-DEVD-pNA (Bachem, King of Prussia, Pa.) (final concentration in assay 80 μM).

Sequence of caspase-8 (Q14790 217-374 limits assumed, species assumed): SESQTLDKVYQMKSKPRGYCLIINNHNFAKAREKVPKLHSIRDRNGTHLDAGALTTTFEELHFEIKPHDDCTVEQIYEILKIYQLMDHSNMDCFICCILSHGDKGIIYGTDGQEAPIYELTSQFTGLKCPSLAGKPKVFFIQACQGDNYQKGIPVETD
Sequence of caspase-8 (Q14790 385-479 limits assumed, species assumed): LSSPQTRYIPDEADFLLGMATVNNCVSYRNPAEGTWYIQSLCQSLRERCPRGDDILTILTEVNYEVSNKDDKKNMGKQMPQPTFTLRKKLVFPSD

Structure (SMILES) | Ki (caspase-1) | Ki (caspase-8)
CC(C)(C)[C@H](NC(=O)c1cccc(OC(F)(F)F)c1Cl)C(=O)N1CCC[C@H]1C(=O)N[C@H](C=O)CC(=O)O [II-32, (S,S,S)-(3S)-({1-[(2S)-(2-Chloro-3-trifluoromethoxy-benzoylamino)-3,3-dimethyl-butyryl]-pyrrolidine-(2S)-carbonyl}-amino)-4-oxo-butyric acid] | < 10 nM | < 10 nM
CC(C)(C)[C@H](NC(=O)c1cccc(OC2CC2)c1Cl)C(=O)N1CCC[C@H]1C(=O)N[C@H](C=O)CC(=O)O [II-33, (S,S,S)-(3S)-({1-[(2S)-(2-Chloro-3-cyclopropyloxy-benzoylamino)-3,3-dimethyl-butyryl]-pyrrolidine-(2S)-carbonyl}-amino)-4-oxo-butyric acid] | < 10 nM | < 10 nM
Cc1cccc(C(=O)N[C@H](C(=O)N2CCC[C@H]2C(=O)N[C@H](C=O)CC(=O)O)C(C)(C)C)c1Cl [II-34, (S,S,S)-(3S)-({1-[(2S)-(2-Chloro-3-methyl-benzoylamino)-3,3-dimethyl-butyryl]-pyrrolidine-(2S)-carbonyl}-amino)-4-oxo-butyric acid] | < 10 nM | < 10 nM
COc1cccc(C(=O)N[C@H](C(=O)N2CCC[C@H]2C(=O)N[C@H](C=O)CC(=O)O)C(C)C)c1Cl [II-35, (S,S,S)-(3S)-({1-[(2S)-(2-chloro-3-methoxy-benzoylamino)-3-methyl-butyryl]-pyrrolidine-(2S)-carbonyl}-amino)-4-oxo-butyric acid] | < 10 nM | < 10 nM
CCc1cccc(C(=O)N[C@H](C(=O)N2CCC[C@H]2C(=O)N[C@H](C=O)CC(=O)O)C(C)(C)C)c1Cl [II-36, (S,S,S)-(3S)-({1-[(2S)-(2-Chloro-3-ethyl-benzoylamino)-3,3-dimethyl-butyryl]-pyrrolidine-(2S)-carbonyl}-amino)-4-oxo-butyric acid] | < 10 nM | < 10 nM
COc1ccc(C(=O)N[C@H](C(=O)N2CCC[C@H]2C(=O)N[C@H](C=O)CC(=O)O)C(C)C)c(Cl)c1 [II-37, (S,S,S)-(3S)-({1-[(2S)-(2-chloro-4-methoxy-benzoylamino)-3-methyl-butyryl]-pyrrolidine-(2S)-carbonyl}-amino)-4-oxo-butyric acid] | < 10 nM | 10 to 20 nM
CC(C)(C)[C@H](NC(=O)c1cccc(OCC2CC2)c1Cl)C(=O)N1CCC[C@H]1C(=O)N[C@H](C=O)CC(=O)O [II-38, (S,S,S)-(3S)-({1-[(2S)-(2-Chloro-3-cyclopropylmethoxy-benzoylamino)-3,3-dimethyl-butyryl]-pyrrolidine-(2S)-carbonyl}-amino)-4-oxo-butyric acid] | < 10 nM | < 10 nM
CC(C)(C)[C@H](NC(=O)c1cccc(O)c1Cl)C(=O)N1CCC[C@H]1C(=O)N[C@H](C=O)CC(=O)O [II-39, (S,S,S)-(3S)-({1-[(2S)-(2-Chloro-3-hydroxy-benzoylamino)-3,3-dimethyl-butyryl]-pyrrolidine-(2S)-carbonyl}-amino)-4-oxo-butyric acid] | < 10 nM | < 10 nM
CC(=O)Nc1ccc(C(=O)N[C@H](C(=O)N2CCC[C@H]2C(=O)N[C@H](C=O)CC(=O)O)C(C)C)c(Cl)c1 [II-40, (S,S,S)-(3S)-({1-[(2S)-(2-chloro-4-acetamido-benzoylamino)-3-methyl-butyryl]-pyrrolidine-(2S)-carbonyl}-amino)-4-oxo-butyric acid] | < 10 nM | 10 to 20 nM
CC(=O)Nc1cccc(C(=O)N[C@H](C(=O)N2CCC[C@H]2C(=O)N[C@H](C=O)CC(=O)O)C(C)(C)C)c1Cl [II-41, (S,S,S)-(3S)-({1-[(2S)-(2-Chloro-3-acetamido-benzoylamino)-3,3-dimethyl-butyryl]-pyrrolidine-(2S)-carbonyl}-amino)-4-oxo-butyric acid] | < 10 nM | < 10 nM
CC(=O)Nc1cccc(C(=O)N[C@H](C(=O)N2CCC[C@H]2C(=O)N[C@H](C=O)CC(=O)O)C(C)(C)C)c1C [II-42, (S,S,S)-(3S)-({1-[(2S)-(2-methyl-3-acetamido-benzoylamino)-3,3-dimethyl-butyryl]-pyrrolidine-(2S)-carbonyl}-amino)-4-oxo-butyric acid] | < 10 nM | 10 to 20 nM
CC(=O)Nc1ccc(C(=O)N[C@H](C(=O)N2CCC[C@H]2C(=O)N[C@H](C=O)CC(=O)O)C(C)(C)C)c(Cl)c1 [II-43, (S,S,S)-(3S)-({1-[(2S)-(2-chloro-4-acetamido-benzoylamino)-3,3-dimethyl-butyryl]-pyrrolidine-(2S)-carbonyl}-amino)-4-oxo-butyric acid] | < 10 nM | < 10 nM

The remaining lines, values ahead:

Ki (caspase-1) | Ki (caspase-8) | Structure (SMILES)
< 10 nM | < 10 nM | CC(=O)Nc1ccc(C(=O)N[C@H](C(=O)N2CCC[C@H]2C(=O)N[C@H](C=O)CC(=O)O)C(C)(C)C)c(F)c1 [II-44, (S,S,S)-(3S)-({1-[(2S)-(2-fluoro-4-acetamido-benzoylamino)-3,3-dimethyl-butyryl]-pyrrolidine-(2S)-carbonyl}-amino)-4-oxo-butyric acid]
< 10 nM | < 10 nM | CC(=O)Nc1ccc(C(=O)N[C@H](C(=O)N2CCC[C@H]2C(=O)N[C@H](C=O)CC(=O)O)C(C)C)c(F)c1 [II-45, (S,S,S)-(3S)-({1-[(2S)-(2-fluoro-4-acetamido-benzoylamino)-3-methyl-butyryl]-pyrrolidine-(2S)-carbonyl}-amino)-4-oxo-butyric acid]
< 10 nM | 21 to 30 nM | CC(C)Oc1ccc(C(=O)N[C@H](C(=O)N2CCC[C@H]2C(=O)N[C@H](C=O)CC(=O)O)C(C)C)c(Cl)c1 [II-46, (S,S,S)-(3S)-({1-[(2S)-(2-chloro-4-isopropyloxy-benzoylamino)-3-methyl-butyryl]-pyrrolidine-(2S)-carbonyl}-amino)-4-oxo-butyric acid]
< 10 nM | < 10 nM | CC(C)(C)[C@H](NC(=O)c1ccc(O)cc1Cl)C(=O)N1CCC[C@H]1C(=O)N[C@H](C=O)CC(=O)O [II-47, (S,S,S)-(3S)-({1-[(2S)-(2-chloro-4-hydroxy-benzoylamino)-3,3-dimethyl-butyryl]-pyrrolidine-(2S)-carbonyl}-amino)-4-oxo-butyric acid]
< 10 nM | < 10 nM | COCc1ccc(C(=O)N[C@H](C(=O)N2CCC[C@H]2C(=O)N[C@H](C=O)CC(=O)O)C(C)(C)C)c(Cl)c1 [II-48, (S,S,S)-(3S)-({1-[(2S)-(2-chloro-4-methoxymethyl-benzoylamino)-3,3-dimethyl-butyryl]-pyrrolidine-(2S)-carbonyl}-amino)-4-oxo-butyric acid]
< 10 nM | < 10 nM | CC(C)C(=O)Nc1ccc(C(=O)N[C@H](C(=O)N2CCC[C@H]2C(=O)N[C@H](C=O)CC(=O)O)C(C)(C)C)c(Cl)c1 [II-49, (S,S,S)-(3S)-({1-[(2S)-(2-chloro-4-isobutyrylamido-benzoylamino)-3,3-dimethyl-butyryl]-pyrrolidine-(2S)-carbonyl}-amino)-4-oxo-butyric acid]
< 10 nM | 21 to 30 nM | CC(=O)Nc1ccc(C(=O)N[C@H](C(=O)N2CCC[C@H]2C(=O)N[C@H](C=O)CC(=O)O)C2CCCCC2)c(Cl)c1 [II-50, (S,S,S)-(3S)-({1-[(2S)-(2-chloro-4-acetamido-benzoylamino)-3-cyclohexyl]-pyrrolidine-(2S)-carbonyl}-amino)-4-oxo-butyric acid]
< 10 nM | < 10 nM | COC(=O)Nc1ccc(C(=O)N[C@H](C(=O)N2CCC[C@H]2C(=O)N[C@H](C=O)CC(=O)O)C(C)(C)C)c(Cl)c1 [II-51, (S,S,S)-(3S)-({1-[(2S)-(2-chloro-4-methoxycarbonylamino-benzoylamino)-3,3-dimethyl-butyryl]-pyrrolidine-(2S)-carbonyl}-amino)-4-oxo-butyric acid]
< 10 nM | < 10 nM | CC(C)(C)[C@H](NC(=O)c1cccc(Oc2ccccc2)c1Cl)C(=O)N1CCC[C@H]1C(=O)N[C@H](C=O)CC(=O)O [II-52, (S,S,S)-(3S)-({1-[(2S)-(2-chloro-3-phenoxy-benzoylamino)-3,3-dimethyl-butyryl]-pyrrolidine-(2S)-carbonyl}-amino)-4-oxo-butyric acid]
< 10 nM | 21 to 30 nM | CC(C)[C@H](NC(=O)c1c(N)cccc1Cl)C(=O)N1CCC[C@H]1C(=O)N[C@H](C=O)CC(=O)O [II-53, (S,S,S)-(3S)-({1-[(2S)-(2-chloro-6-amino-benzoylamino)-3-methyl-butyryl]-pyrrolidine-(2S)-carbonyl}-amino)-4-oxo-butyric acid]
